# Test results taken from ChEMBL document CHEMBL1201862, “PubChem BioAssay data set” (2004).
# Activity calls are given as the source filed them.
# What was measured:
# [1] = target: Glyceraldehyde-3-phosphate dehydrogenase (Homo sapiens, UniProt P04406)
# [2] = target: T1, Tyrosine-protein phosphatase non-receptor type 7 (Homo sapiens, UniProt P35236); assay type: functional
# T1 sequence (P35236 whole entry): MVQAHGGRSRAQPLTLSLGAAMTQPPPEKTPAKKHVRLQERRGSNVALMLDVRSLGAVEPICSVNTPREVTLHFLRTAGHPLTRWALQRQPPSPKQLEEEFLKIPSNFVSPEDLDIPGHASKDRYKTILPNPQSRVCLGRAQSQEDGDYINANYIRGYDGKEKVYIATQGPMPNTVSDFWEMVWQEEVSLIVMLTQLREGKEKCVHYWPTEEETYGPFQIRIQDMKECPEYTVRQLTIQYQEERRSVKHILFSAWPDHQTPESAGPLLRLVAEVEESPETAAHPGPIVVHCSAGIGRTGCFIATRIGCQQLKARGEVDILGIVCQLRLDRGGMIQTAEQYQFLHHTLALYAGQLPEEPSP
# [3] = target: T2, Dual specificity protein phosphatase 6 (Rattus norvegicus, UniProt Q64346)
# T2 sequence (Q64346 whole entry): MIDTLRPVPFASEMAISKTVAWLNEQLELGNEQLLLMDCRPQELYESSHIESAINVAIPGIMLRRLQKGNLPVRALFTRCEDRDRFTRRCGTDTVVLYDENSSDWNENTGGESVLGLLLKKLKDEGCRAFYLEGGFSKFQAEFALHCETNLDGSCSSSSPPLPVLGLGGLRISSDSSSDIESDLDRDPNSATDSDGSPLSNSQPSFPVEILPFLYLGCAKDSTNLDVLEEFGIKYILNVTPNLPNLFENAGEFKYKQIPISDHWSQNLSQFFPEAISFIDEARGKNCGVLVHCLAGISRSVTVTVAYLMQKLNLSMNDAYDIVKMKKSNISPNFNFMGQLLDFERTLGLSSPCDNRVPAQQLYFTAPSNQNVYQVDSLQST
# [4] = target: T2, Dual specificity protein phosphatase 6; assay type: functional
# INS1 = experiment: beta cell apoptosis inhibitors, cytokine rescue, dose response, luminescence, retest (AID 449756); assay type: functional, cell-based; conditions: Rattus norvegicus;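 also: cell death triggered by IL-1 beta plus TNF-alpha plus IFN-gamma mixture; protective hits raise ATP signal compared with cytokine alone wells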
# [5] = target: Eukaryotic translation initiation factor 4E (Mus musculus, UniProt P63073); experiment: eIF4E–eIF4G protein interaction inhibitors, dose response, biochemical, TR-FRET (AID 855); assay type: functional;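 also: potency for disrupting eIF4E binding to eIF4GI seen as loss of FRET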
# Sequence of Eukaryotic translation initiation factor 4E (P63073 whole entry): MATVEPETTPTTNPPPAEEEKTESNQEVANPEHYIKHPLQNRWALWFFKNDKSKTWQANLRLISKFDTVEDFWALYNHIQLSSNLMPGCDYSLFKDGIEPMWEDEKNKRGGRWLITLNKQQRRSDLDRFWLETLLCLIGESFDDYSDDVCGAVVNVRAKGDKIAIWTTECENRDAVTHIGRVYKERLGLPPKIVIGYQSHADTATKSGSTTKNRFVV
# [6] = target: Glucose-6-phosphate 1-dehydrogenase (Homo sapiens, UniProt P11413); experiment: human G6PD enzyme inhibitors, dose response, selectivity assay for P. falciparum G6PD inhibitor project, biochemical, fluorescence (AID 504792); assay type: functional
# Sequence of Glucose-6-phosphate 1-dehydrogenase (P11413 whole entry): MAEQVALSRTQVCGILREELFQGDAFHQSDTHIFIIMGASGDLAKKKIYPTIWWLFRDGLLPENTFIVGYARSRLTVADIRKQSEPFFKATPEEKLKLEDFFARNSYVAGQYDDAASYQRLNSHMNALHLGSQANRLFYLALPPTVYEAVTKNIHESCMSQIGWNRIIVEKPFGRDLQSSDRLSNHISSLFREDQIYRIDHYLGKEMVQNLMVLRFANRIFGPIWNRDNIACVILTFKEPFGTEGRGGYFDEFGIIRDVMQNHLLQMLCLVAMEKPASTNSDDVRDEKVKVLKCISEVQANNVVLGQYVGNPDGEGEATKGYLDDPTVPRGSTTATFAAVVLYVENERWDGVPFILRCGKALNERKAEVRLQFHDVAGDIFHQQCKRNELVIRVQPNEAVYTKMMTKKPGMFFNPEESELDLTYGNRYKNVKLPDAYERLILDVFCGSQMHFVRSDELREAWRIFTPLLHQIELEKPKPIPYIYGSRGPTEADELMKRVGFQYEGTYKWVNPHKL
# [7] = target: Induced myeloid leukemia cell differentiation protein Mcl-1 (Homo sapiens, UniProt Q07820); assay type: functional
# Sequence of Induced myeloid leukemia cell differentiation protein Mcl-1 (Q07820 whole entry): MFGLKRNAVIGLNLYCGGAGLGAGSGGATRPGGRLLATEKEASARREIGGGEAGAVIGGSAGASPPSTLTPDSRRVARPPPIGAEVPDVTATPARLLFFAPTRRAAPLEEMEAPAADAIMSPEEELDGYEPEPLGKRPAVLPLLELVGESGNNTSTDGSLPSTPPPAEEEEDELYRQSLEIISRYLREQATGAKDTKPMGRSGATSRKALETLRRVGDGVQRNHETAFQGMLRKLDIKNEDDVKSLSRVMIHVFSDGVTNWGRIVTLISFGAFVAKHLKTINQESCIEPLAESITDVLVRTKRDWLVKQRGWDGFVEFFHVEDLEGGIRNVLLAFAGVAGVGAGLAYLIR
# [8] = target: T3, Mannose-6-phosphate isomerase (Homo sapiens, UniProt P34949); experiment: human PMI inhibitors, high substrate, primary screen, biochemical, fluorescence intensity, high mannose 6-phosphate (AID 1220)
# T3 sequence (P34949 whole entry): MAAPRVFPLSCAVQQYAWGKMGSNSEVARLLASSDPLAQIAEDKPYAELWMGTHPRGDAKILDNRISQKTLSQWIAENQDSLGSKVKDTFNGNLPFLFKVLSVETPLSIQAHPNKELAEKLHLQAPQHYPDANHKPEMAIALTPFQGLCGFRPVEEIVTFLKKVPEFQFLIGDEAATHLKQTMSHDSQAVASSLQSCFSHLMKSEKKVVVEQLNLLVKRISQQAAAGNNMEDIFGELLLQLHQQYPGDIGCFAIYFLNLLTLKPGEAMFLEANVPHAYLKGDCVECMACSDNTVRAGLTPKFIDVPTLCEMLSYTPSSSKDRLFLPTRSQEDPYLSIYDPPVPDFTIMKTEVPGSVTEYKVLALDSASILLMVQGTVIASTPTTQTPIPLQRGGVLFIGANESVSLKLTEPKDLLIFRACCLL
# [9] = target: T4, Long-chain-fatty-acid--AMP ligase FadD28 (Mycobacterium tuberculosis, UniProt P9WQ59); experiment: Fluorescence polarization aasay to screen for inhibitors that compete for the binding of FadD28 to a bisubstrate Measured in Biochemical System Using Plate Reader - 2147-01_Inhibitor_Dose_CherryPick_Activity.; assay type: functional, Mycobacterium tuberculosis H37Rv
# T4 sequence (P9WQ59 whole entry): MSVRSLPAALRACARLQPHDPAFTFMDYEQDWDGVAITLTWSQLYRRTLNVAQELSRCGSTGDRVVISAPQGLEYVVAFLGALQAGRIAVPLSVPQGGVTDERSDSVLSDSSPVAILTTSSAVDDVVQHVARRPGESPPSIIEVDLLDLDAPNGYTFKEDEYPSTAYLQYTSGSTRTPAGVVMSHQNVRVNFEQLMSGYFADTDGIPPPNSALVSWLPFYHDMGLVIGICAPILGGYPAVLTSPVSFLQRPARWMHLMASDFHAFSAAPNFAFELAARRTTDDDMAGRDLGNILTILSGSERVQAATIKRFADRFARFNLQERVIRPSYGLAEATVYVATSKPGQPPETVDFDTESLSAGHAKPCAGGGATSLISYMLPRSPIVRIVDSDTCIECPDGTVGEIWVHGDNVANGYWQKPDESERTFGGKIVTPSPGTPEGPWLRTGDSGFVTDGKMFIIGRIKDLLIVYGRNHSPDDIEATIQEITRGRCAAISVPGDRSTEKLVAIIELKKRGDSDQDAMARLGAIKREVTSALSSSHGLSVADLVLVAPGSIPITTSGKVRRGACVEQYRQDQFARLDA
# [10] = target: UDP-galactopyranose mutase (Mycobacterium tuberculosis, UniProt P9WIQ1); experiment: Inhibitors of Mycobacterium tuberculosis UDP-galactopyranose mutase (UGM) enzyme Measured in Biochemical System Using Plate Reader - 2105-02_Inhibitor_Dose_CherryPick_Activity. [Related pubchem assays (depositor defined):AID504439]
# [11] = THP-1 cell cytotoxicity, dose response, cytotoxicity control for Vif-APOBEC3G degradation inhibitor project, THP-1 cells (AID 1117359); assay type: functional; conditions: Human immunodeficiency virus 1, THP-1
# HEK293 = experiment: cells; assay type: functional, cell-based; conditions: Homo sapiens
# [12] = target: Nuclear receptor subfamily 0 group B member 1 (Homo sapiens, UniProt P51843); experiment: Luminescence-based cell-based high throughput dose response assay for inhibitors of the orphan nuclear receptor subfamily 0, group B, member 1 (DAX1; NR0B1). [Related pubchem assays (depositor defined):AID504766, AID504790]; assay type: functional
# [13] = target: Voltage-gated inwardly rectifying potassium channel KCNH2 (Homo sapiens, UniProt Q12809); conditions: Potency;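 also: confirmatory quantitative high-throughput screen measuring inhibition of hERG channel activity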
# Sequence of Voltage-gated inwardly rectifying potassium channel KCNH2 (Q12809 whole entry): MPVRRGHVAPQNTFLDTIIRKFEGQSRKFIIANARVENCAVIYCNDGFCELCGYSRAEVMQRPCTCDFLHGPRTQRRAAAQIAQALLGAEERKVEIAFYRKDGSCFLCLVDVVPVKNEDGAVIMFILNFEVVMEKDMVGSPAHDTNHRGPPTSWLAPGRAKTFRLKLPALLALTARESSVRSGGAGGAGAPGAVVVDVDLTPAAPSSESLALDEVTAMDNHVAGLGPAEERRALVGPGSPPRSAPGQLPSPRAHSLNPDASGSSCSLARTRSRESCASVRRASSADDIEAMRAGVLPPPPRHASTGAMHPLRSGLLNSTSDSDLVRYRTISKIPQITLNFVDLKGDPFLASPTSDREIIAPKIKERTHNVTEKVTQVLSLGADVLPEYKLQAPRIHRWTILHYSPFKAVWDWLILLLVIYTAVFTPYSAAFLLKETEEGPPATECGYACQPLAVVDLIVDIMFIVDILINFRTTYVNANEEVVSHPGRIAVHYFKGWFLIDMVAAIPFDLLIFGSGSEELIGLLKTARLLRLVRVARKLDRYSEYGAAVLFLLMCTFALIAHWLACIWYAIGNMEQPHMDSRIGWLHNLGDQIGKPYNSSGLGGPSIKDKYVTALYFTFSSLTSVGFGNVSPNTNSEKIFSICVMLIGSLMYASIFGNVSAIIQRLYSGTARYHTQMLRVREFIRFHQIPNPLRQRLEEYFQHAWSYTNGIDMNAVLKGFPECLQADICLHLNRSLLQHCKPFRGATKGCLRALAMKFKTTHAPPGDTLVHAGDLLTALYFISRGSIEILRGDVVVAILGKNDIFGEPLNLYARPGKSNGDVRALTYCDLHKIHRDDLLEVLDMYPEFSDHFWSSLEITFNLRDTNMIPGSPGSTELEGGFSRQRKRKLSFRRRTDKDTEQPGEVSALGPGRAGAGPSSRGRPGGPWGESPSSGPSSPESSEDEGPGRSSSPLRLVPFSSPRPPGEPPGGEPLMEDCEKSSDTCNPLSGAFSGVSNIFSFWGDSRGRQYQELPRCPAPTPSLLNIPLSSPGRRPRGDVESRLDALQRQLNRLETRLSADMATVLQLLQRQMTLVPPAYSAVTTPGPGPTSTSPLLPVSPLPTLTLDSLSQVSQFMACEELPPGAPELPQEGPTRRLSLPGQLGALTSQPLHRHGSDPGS
# [14] = Luminescence Cell-Based Dose Confirmation HTS to Identify Inhibitors of Platelet Dense Granule Release. [Related pubchem assays: 1663 (Primary HTS), 1678 (Summary of Project)]; assay type: functional
# [15] = target: Luciferin 4-monooxygenase (Photinus pyralis, UniProt P08659); experiment: firefly luciferase enzyme inhibitors, dose response, biochemical, luminescence (AID 1891)
# Sequence of Luciferin 4-monooxygenase (P08659 whole entry): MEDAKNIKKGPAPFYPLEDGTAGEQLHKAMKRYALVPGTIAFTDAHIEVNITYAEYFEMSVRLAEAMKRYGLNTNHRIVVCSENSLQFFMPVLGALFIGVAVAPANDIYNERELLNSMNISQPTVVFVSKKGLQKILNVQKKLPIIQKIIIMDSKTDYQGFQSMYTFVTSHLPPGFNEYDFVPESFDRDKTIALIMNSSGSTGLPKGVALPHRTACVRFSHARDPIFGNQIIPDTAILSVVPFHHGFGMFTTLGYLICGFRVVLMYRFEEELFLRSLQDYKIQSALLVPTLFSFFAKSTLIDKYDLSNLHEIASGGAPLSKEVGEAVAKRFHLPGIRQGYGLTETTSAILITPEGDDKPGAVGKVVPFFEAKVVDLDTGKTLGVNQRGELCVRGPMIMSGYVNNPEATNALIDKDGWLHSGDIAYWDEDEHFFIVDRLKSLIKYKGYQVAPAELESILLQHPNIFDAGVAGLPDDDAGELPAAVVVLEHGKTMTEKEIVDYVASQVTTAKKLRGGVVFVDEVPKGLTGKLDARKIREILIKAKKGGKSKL
# [16] = inhibitors of SFLLRN-triggered platelet P-selectin exposure, dose response, cell-based, fluorescence, flow cytometry, human platelets (AID 2511); assay type: functional
# [17] = Luminescence Cell-Based Dose Response Follow up to Identify Inhibitors of Platelet Dense Granule Release. [Related pubchem assays (depositor defined):AID1663, AID1678, AID1889, AID2519]; assay type: functional
# [18] = growth suppression of beta-catenin-knockout colon cells, dose response, cell-based, HCT116, human colon tumor (AID 1045); assay type: functional;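 also: HCT116 colon tumor cells with beta catenin knocked out; cells exposed to compound for 60 hours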
# Mu-type opioid receptor = Mu-type opioid receptor (Homo sapiens, UniProt P35372); experiment: (§1) Counterscreen for agonists of heterodimerization of the mu 1 (OPRM1) and delta 1 (OPRD1) opioid receptors: Luminescence-based cell-based high throughput dose response assay to identify agonists of OPRM1 homodimerization.; assay type: functional
# Sequence of Mu-type opioid receptor (P35372 whole entry): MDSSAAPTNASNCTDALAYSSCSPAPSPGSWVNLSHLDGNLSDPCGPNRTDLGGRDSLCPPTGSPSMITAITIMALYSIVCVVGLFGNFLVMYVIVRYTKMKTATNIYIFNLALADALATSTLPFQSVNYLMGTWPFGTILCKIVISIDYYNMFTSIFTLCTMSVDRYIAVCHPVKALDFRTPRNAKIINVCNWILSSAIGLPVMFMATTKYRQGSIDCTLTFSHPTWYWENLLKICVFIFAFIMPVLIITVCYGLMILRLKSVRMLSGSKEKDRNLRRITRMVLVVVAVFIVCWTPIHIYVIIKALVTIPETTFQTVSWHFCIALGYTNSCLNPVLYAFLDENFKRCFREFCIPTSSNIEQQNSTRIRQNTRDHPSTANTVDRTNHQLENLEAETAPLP
# [19] = Vero E6 cell cytotoxicity, dose response, cytotoxicity control for non-replicating M. tuberculosis project, secondary assay (AID 492998); assay type: functional, VeroE6; conditions: Vero C1008
# [20] = target: T5, High affinity choline transporter 1 (Homo sapiens, UniProt Q9GZV3); experiment: CHT inhibitors, dose response, cell-based, 5-point CRC, membrane potential dye (AID 504840); assay type: functional
# T5 sequence (Q9GZV3 whole entry): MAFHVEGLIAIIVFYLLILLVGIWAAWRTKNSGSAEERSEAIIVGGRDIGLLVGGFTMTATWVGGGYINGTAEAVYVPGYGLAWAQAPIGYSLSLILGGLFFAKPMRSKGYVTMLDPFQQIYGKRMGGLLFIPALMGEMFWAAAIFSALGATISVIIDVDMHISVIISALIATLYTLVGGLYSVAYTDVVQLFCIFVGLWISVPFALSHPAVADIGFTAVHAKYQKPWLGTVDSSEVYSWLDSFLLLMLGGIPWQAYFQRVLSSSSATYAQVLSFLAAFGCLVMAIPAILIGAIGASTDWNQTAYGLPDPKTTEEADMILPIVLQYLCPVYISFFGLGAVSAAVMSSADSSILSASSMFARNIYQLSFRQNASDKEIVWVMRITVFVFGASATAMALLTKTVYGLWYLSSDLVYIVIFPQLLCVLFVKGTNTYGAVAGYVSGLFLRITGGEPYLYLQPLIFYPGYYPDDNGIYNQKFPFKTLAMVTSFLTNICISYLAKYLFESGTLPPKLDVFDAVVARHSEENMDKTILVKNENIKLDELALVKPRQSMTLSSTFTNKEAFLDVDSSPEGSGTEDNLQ
# [21] = target: Sphingosine 1-phosphate receptor 2 (Homo sapiens, UniProt O95136); experiment: Dose Response Cell Based Assay for Antagonists of the S1P2 Receptor. [Related pubchem assays: 856, 736 ]; assay type: functional
# Sequence of Sphingosine 1-phosphate receptor 2 (O95136 whole entry): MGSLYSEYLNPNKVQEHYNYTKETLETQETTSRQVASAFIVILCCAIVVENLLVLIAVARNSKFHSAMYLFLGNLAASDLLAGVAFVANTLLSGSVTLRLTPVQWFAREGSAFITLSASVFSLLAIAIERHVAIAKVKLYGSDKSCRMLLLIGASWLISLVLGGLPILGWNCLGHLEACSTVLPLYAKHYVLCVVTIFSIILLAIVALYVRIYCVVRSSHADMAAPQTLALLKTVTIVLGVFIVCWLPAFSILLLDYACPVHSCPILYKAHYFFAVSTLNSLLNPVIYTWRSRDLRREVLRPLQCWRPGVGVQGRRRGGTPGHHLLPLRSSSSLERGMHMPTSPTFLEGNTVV
# [22] = target: Heat shock protein HSP 90-alpha (Homo sapiens, UniProt P07900); assay type: functional, organism-based
# [23] = growth suppression of PTEN-null colon cells, dose response, cell-based, HCT116 PTEN knockout (AID 1047); assay type: functional;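 also: HCT116 colon tumor cells with PTEN knocked out; cells exposed to compound for 60 hours before readout; potency for loss of cell viability measured by luminescence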
# cells = assay type: functional
# [24] = target: 5-hydroxytryptamine receptor 5A (Homo sapiens, UniProt P47898); experiment: Counterscreen for agonists of OPRM1-OPRD1 heterodimerization: luminescence-based cell-based high throughput dose response assay to identify agonists of 5-hydroxytryptamine (serotonin) 5A receptor (HTR5A). [Related pubchem assays (depositor defined):AID504326, AID504355, AID504692, AID504904, AID504905]; assay type: functional
# Sequence of 5-hydroxytryptamine receptor 5A (P47898 whole entry): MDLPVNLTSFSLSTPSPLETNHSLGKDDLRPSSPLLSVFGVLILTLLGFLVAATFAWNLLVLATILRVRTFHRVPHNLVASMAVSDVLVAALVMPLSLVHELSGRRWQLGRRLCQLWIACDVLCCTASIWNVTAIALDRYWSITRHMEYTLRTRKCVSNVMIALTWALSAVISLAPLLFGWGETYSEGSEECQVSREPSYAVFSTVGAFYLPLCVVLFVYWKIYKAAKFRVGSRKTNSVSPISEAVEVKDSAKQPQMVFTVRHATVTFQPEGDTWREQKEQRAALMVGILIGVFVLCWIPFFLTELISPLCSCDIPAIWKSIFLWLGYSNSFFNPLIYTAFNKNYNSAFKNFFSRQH
# [25] = THP-1 cell cytotoxicity, dose response, cytotoxicity control for non-replicating M. tuberculosis project (AID 489025); assay type: functional
# [26] = target: Delta-type opioid receptor (Homo sapiens, UniProt P41143); experiment: as §1, with “of OPRD1” for “of OPRM1”, “homodimerization. [Related pubchem assays (depositor defined):AID504326, AID504355, AID504692, AID504904, AID504905]” for “homodimerization.”; assay type: functional
# Sequence of Delta-type opioid receptor (P41143 whole entry): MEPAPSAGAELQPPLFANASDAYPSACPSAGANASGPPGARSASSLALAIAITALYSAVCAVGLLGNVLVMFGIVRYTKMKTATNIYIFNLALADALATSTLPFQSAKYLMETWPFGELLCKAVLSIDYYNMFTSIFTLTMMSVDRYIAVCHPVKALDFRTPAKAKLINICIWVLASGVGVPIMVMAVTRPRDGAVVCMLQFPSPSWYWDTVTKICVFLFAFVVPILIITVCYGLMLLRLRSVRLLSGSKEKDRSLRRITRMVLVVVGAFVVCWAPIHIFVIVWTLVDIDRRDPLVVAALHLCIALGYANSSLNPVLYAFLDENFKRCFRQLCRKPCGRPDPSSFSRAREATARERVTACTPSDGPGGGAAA
# Sequence of Glyceraldehyde-3-phosphate dehydrogenase (P04406 whole entry): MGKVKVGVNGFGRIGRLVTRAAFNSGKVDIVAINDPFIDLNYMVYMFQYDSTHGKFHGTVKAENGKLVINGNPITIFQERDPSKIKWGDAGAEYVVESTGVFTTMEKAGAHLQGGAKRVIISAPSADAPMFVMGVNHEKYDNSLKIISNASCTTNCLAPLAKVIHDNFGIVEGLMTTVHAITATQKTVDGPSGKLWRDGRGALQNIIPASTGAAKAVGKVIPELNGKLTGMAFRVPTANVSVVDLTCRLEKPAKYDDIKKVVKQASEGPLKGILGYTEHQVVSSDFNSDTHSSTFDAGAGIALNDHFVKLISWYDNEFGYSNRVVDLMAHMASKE
compound,measurement,setting,value
Cc1ccccc1Cn1c(=O)n(-c2ccccc2)c(=O)n([C@H](C(=O)O)C(C)C)c1=O,IC50,[1],> 100 µM (not active)
same,IC50,[2],> 100 µM (not active)
same,IC50,[3],> 100 µM (inactive)
same,IC50,[4],> 100 µM (inactive)
COc1cc(/C=C2\CC/C(=C\c3cc(OC)c(O)c(OC)c3)C2=O)cc(OC)c1O,AC50,INS1,4.41 µM (active)
same,IC50,[5],> 64 µM (inactive)
same,IC50,[6],> 80 µM (inactive)
same,IC50,[7],5.75 µM (active)
same,IC50,[8],24.7 µM (active)
same,AC50,[9],86.6 µM (active)
same,AC50,[10],8.22 µM (active)
same,CC50,[11],3.3 µM (active)
COc1ccc(-c2csc(Nc3cccc(C)n3)n2)cc1,IC50,HEK293,> 67.5 µM (inactive)
same,IC50,[12],> 67.5 µM (inactive)
CCN(CC)C(=O)N[C@@H]1C[C@@H]2c3cccc4[nH]cc(c34)C[C@H]2N(C)C1,AC50,[13],25.1 µM (inconclusive)
CCCCC(=O)Nc1cccc(NC(=O)c2ccccc2Br)c1,EC50,[14],6.9 µM (active)
same,EC50,[15],> 112 µM (not active)
same,EC50,[16],< 3 µM (active)
same,EC50,[17],500 µM (inactive)
CC1=C/C(=N\OS(=O)(=O)c2ccccc2)C(C)=CC1=O,AC50,INS1,1.17 µM (active)
same,EC50,[18],16.4 µM (active)
same,EC50,Mu-type opioid receptor,> 92.5 µM (inactive)
same,CC50,[19],15.6 µM (active)
same,IC50,[20],12.3 µM (active)
same,IC50,[21],3.71 µM (active)
same,AC50,[22],0.554 µM (active)
same,IC50,[8],3.73 µM (active)
same,EC50,[23],14.5 µM (active)
same,IC50,cells,3.09 µM (active)
same,EC50,[24],> 92.5 µM (inactive)
same,CC50,[25],12 µM (active)
same,EC50,[26],> 92.5 µM (inactive)
